# According to patent US9023789B2, “Amylin analogs and pharmaceutical compositions thereof” (Novo Nordisk A/S, priority 2012, dated 2015):
# Numbered stars: 1 amine (or outer) side, 2 acyl side, 3 side chain; on linkers, the order of the positions; unused ones are H or OH. Bridge positions count the residues as written; N and C are the ends. Side chains are listed from the residue outwards. Peptide text beside a SMILES is read from it. * marks the point of attachment. C20 diacid = O=C(O)CCCCCCCCCCCCCCCCCCC(=O)*; γGlu = O=C(O)[C@H](CCC(=O)[*:2])N[*:1]
# Tests used:
# rat calcitonin receptor = target: T1, rat calcitonin receptor (Rattus norvegicus, UniProt P32214); assay: ASSAY (VIII) binding to the rat calcitonin receptor; conditions: Table 7, read-out: rCTR bind IC50
# T1 construct: expressed in transfected cells; host or cells: BHK tk'ts 13 (transient, FuGENE 6), membranes
# T1 sequence (P32214 25-479 isoform P32214-2 limits assumed): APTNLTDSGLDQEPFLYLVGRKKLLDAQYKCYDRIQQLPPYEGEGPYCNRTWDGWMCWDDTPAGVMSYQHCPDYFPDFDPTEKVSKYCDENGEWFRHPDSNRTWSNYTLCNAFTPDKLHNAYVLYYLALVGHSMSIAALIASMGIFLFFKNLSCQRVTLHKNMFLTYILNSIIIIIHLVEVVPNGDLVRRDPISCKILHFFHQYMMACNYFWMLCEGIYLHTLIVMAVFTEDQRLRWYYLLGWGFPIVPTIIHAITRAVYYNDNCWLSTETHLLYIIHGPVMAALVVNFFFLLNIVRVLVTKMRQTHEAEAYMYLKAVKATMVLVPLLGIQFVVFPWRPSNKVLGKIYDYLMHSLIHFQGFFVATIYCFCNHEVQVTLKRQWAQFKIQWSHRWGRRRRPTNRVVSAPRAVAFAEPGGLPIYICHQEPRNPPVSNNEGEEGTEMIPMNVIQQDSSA
# Outline: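 Rat calcitonin receptor is expressed transiently in BHK tk′ts 13 cells cultured in DMEM with 10% FBS. Roughly two days (approximately 48 hours) post-transfection, cells are harvested for membrane preparation.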
# [1] = target: T2, rat amylin receptor (rat calcitonin receptor + rat RAMP 3) (Rattus norvegicus, UniProt P32214+Q9JJ73); assay: ASSAY (VI) binding to the rat amylin receptor; conditions: for IC50: binding to rat amylin receptor, read-out: rAmylin-R bind IC50
# T2 construct: expressed in transfected cells; host or cells: BHK tk'ts 13 (transient, FuGENE 6), membranes
# T2 sequence (P32214 25-479 isoform P32214-2 limits assumed): T1 sequence (P32214 25-479 isoform P32214-2 limits assumed)
# T2 sequence (Q9JJ73 23-147 partner): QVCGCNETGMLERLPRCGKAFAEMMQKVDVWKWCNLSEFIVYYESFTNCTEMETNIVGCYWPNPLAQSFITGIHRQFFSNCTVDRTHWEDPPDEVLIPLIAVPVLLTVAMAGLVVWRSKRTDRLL
# Outline: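 This assay measured binding to the rat amylin receptor. BHK tk′ts 13 cells were transiently transfected with the rat calcitonin receptor using FuGENE® 6 (Roche), following the manufacturer's recommendations. About 48 hours after transfection, the cells were harvested and membranes were prepared from them for the binding determination.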
# Sprague Dawley (SD) rats = assay: ASSAY (I) efficacy testing on appetite (food intake) using an ad libitum fed rat model; type: in vivo; conditions: rat
# Outline: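 Ad libitum fed SD rats (200–250 g) were housed singly on a reversed light/dark cycle and given one 0.01–3 mg/kg dose ip, po or sc just before lights-off, with 5–8 per dose group plus vehicle controls. Food intake was recorded hourly for 7 h, then at 24 h and sometimes 48 h; Grubbs outliers were excluded.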
# [2] = Table 7, rat binding selectivity, rCTR IC50 / rAmylin-R IC50
# [3] = Table 7a (preferred compounds), rat binding selectivity, rCTR IC50 / rAmylin-R IC50
# [4] = ratio of rCTR bind IC50 to rAmylin-R bind IC50
IC50 (rat calcitonin receptor),IC50 ([1]; Table 7),"Ratio rCT/rAmylin binding [1, 2]","Ratio rCT/rAmylin binding [1, 3]","Ratio rCT/rAmylin binding [1, 4]",Compound,Food intake reduction 0-24 h 30 nmol/kg (%) (Sprague Dawley (SD) rats; 0-24 h),Food intake reduction 24-48 h 30 nmol/kg (%) (Sprague Dawley (SD) rats; 24-48 h),"Food intake reduction 0-24 h 3 nmol/kg (%) (Sprague Dawley (SD) rats; 3 nmol/kg, 0-24 h)","Food intake reduction 24-48 h 3 nmol/kg (%) (Sprague Dawley (SD) rats; 3 nmol/kg, 24-48 h)"
140 nM,0.161 nM,867.7,867.7,867.7,CC[C@H](C)[C@H](NC(=O)[C@H](C)NC(=O)CNC(=O)[C@H](Cc1ccccc1)NC(=O)[C@H](CC(N)=O)NC(=O)[C@@H]1CCCN1C(=O)[C@H](CO)NC(=O)[C@H](CO)NC(=O)[C@H](Cc1c[nH]cn1)NC(=O)[C@H](CCCNC(=N)N)NC(=O)[C@H](CC(C)C)NC(=O)[C@H](Cc1ccccc1)NC(=O)[C@H](CO)NC(=O)[C@H](C)NC(=O)[C@H](CC(C)C)NC(=O)[C@H](CCCNC(=N)N)NC(=O)[C@H](CCC(N)=O)NC(=O)[C@@H](NC(=O)[C@H](C)NC(=O)[C@@H]1CSSC[C@H](NC(=O)[C@@H](N)CCCCNC(=O)CC[C@H](NC(=O)CC[C@H](NC(=O)CCCCCCCCCCCCCCCCCCC(=O)O)C(=O)O)C(=O)O)C(=O)N[C@@H](CC(N)=O)C(=O)N[C@@H]([C@@H](C)O)C(=O)N[C@@H](C)C(=O)N[C@@H]([C@@H](C)O)C(=O)N1)[C@@H](C)O)C(=O)N1CCC[C@H]1C(=O)N[C@@H](CO)C(=O)N[C@@H](CO)C(=O)N[C@H](C(=O)N[C@@H](CC(N)=O)C(=O)N[C@H](C(=O)NCC(=O)N1CCC[C@H]1C(=O)N[C@@H](CCC(=O)O)C(=O)N[C@H](C(=O)N[C@@H](Cc1ccc(O)cc1)C(N)=O)[C@@H](C)O)C(C)C)[C@@H](C)O [Example 120] (H-K([γGlu-γGlu-C20 diacid])CNTATCATQRLASFLRHSSPNFGAIPSSTNVGPETY-NH2; disulfide 2-7 (inferred); N-terminus assumed),66%,61%,–,–
31.9 nM,0.324 nM,98.5,98.5,98.5,CC[C@H](C)[C@H](NC(=O)[C@H](C)NC(=O)CNC(=O)[C@H](Cc1ccccc1)NC(=O)[C@H](CC(N)=O)NC(=O)[C@@H]1CCCN1C(=O)[C@H](CO)NC(=O)[C@H](CO)NC(=O)[C@H](Cc1c[nH]cn1)NC(=O)[C@H](CCCNC(=N)N)NC(=O)[C@H](CC(C)C)NC(=O)[C@H](Cc1ccccc1)NC(=O)[C@H](CC(=O)O)NC(=O)[C@H](C)NC(=O)[C@H](CC(C)C)NC(=O)[C@H](CCCNC(=N)N)NC(=O)[C@H](CCC(N)=O)NC(=O)[C@@H](NC(=O)[C@H](C)NC(=O)[C@@H]1CSSC[C@H](NC(=O)[C@@H](N)CCCCNC(=O)CC[C@H](NC(=O)CC[C@H](NC(=O)CCCCCCCCCCCCCCCCCCC(=O)O)C(=O)O)C(=O)O)C(=O)N[C@@H](CC(N)=O)C(=O)N[C@@H]([C@@H](C)O)C(=O)N[C@@H](C)C(=O)N[C@@H]([C@@H](C)O)C(=O)N1)[C@@H](C)O)C(=O)N1CCC[C@H]1C(=O)N[C@@H](CO)C(=O)N[C@@H](CO)C(=O)N[C@H](C(=O)N[C@@H](CC(N)=O)C(=O)N[C@H](C(=O)NCC(=O)N1CCC[C@H]1C(=O)N[C@@H](CCC(=O)O)C(=O)N[C@H](C(=O)N[C@@H](Cc1ccc(O)cc1)C(N)=O)[C@@H](C)O)C(C)C)[C@@H](C)O [Example 122] (H-K([γGlu-γGlu-C20 diacid])CNTATCATQRLADFLRHSSPNFGAIPSSTNVGPETY-NH2; disulfide 2-7 (inferred); N-terminus assumed),–,–,50%,50%
21 nM,0.288 nM,73.0,73.0,73.0,CC[C@H](C)[C@H](NC(=O)[C@H](C)NC(=O)CNC(=O)[C@H](Cc1ccccc1)NC(=O)[C@H](CC(N)=O)NC(=O)[C@@H]1CCCN1C(=O)[C@H](CO)NC(=O)[C@H](CO)NC(=O)[C@H](Cc1c[nH]cn1)NC(=O)[C@H](CCCNC(=N)N)NC(=O)[C@H](CC(C)C)NC(=O)[C@H](Cc1ccccc1)NC(=O)[C@H](CCC(=O)O)NC(=O)[C@H](C)NC(=O)[C@H](CC(C)C)NC(=O)[C@H](CCCNC(=N)N)NC(=O)[C@H](CCC(N)=O)NC(=O)[C@@H](NC(=O)[C@H](C)NC(=O)[C@@H]1CSSC[C@H](NC(=O)[C@@H](N)CCCCNC(=O)CC[C@H](NC(=O)CC[C@H](NC(=O)CCCCCCCCCCCCCCCCCCC(=O)O)C(=O)O)C(=O)O)C(=O)N[C@@H](CC(N)=O)C(=O)N[C@@H]([C@@H](C)O)C(=O)N[C@@H](C)C(=O)N[C@@H]([C@@H](C)O)C(=O)N1)[C@@H](C)O)C(=O)N1CCC[C@H]1C(=O)N[C@@H](CO)C(=O)N[C@@H](CO)C(=O)N[C@H](C(=O)N[C@@H](CC(N)=O)C(=O)N[C@H](C(=O)NCC(=O)N1CCC[C@H]1C(=O)N[C@@H](Cc1c[nH]cn1)C(=O)N[C@H](C(=O)N[C@@H](Cc1ccc(O)cc1)C(N)=O)[C@@H](C)O)C(C)C)[C@@H](C)O [Example 124] (H-K([γGlu-γGlu-C20 diacid])CNTATCATQRLAEFLRHSSPNFGAIPSSTNVGPHTY-NH2; disulfide 2-7 (inferred)),73%,38%,–,–
223 nM,0.93 nM,239.5,239.5,239.5,CC[C@H](C)[C@H](NC(=O)[C@H](C)NC(=O)CNC(=O)[C@H](Cc1ccccc1)NC(=O)[C@H](CC(N)=O)NC(=O)[C@@H]1CCCN1C(=O)[C@H](CO)NC(=O)[C@H](CO)NC(=O)[C@H](Cc1c[nH]cn1)NC(=O)[C@H](CCCNC(=N)N)NC(=O)[C@H](CC(C)C)NC(=O)[C@H](Cc1ccccc1)NC(=O)[C@H](CC(=O)O)NC(=O)[C@H](C)NC(=O)[C@H](CC(C)C)NC(=O)[C@H](CCCNC(=N)N)NC(=O)[C@H](CCC(N)=O)NC(=O)[C@@H](NC(=O)[C@H](C)NC(=O)[C@@H]1CSSC[C@H](NC(=O)[C@@H](N)CCCCNC(=O)CC[C@H](NC(=O)CC[C@H](NC(=O)CCCCCCCCCCCCCCCCCCC(=O)O)C(=O)O)C(=O)O)C(=O)N[C@@H](CC(N)=O)C(=O)N[C@@H]([C@@H](C)O)C(=O)N[C@@H](C)C(=O)N[C@@H]([C@@H](C)O)C(=O)N1)[C@@H](C)O)C(=O)N1CCC[C@H]1C(=O)N[C@@H](CO)C(=O)N[C@@H](CO)C(=O)N[C@H](C(=O)N[C@@H](CC(N)=O)C(=O)N[C@H](C(=O)NCC(=O)N1CCC[C@H]1C(=O)N[C@@H](CCCNC(=N)N)C(=O)N[C@H](C(=O)N[C@@H](Cc1ccc(O)cc1)C(N)=O)[C@@H](C)O)C(C)C)[C@@H](C)O [Example 130] (H-K([γGlu-γGlu-C20 diacid])CNTATCATQRLADFLRHSSPNFGAIPSSTNVGPRTY-NH2; disulfide 2-7 (inferred); N-terminus assumed),80%,27%,–,–
